#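 Tested at 5 concentrations; 48 h exposure; 96-well plates; endpoints linearly interpolated, else capped at highest concentration. GI50 marks 50% less growth. TGI: total growth inhibition.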
# How the values were obtained:
# Assay in all cases: NCI-60 cell line screen, 48 h
# 786-0 renal = system: 786-0 renal
# A549 NSCLC = system: A549 NSCLC
# ACHN renal = system: ACHN renal
# CCRF-CEM leukemia = system: CCRF-CEM leukemia
# COLO 205 colon = system: COLO 205 colon
# DLD-1 colon = system: DLD-1 colon
# DMS 114 small cell lung = system: DMS 114 small cell lung
# DMS 273 small cell lung = system: DMS 273 small cell lung
# EKVX NSCLC = system: EKVX NSCLC
# HCC-2998 colon = system: HCC-2998 colon
# HCT-15 colon = system: HCT-15 colon
# HL-60(TB) leukemia = system: HL-60(TB) leukemia
# HOP-18 NSCLC = system: HOP-18 NSCLC
# HOP-92 NSCLC = system: HOP-92 NSCLC
# HT29 colon = system: HT29 colon
# IGROV1 ovarian = system: IGROV1 ovarian
# K-562 leukemia = system: K-562 leukemia
# KM12 colon = system: KM12 colon
# KM20L2 colon = system: KM20L2 colon
# LXFL 529 NSCLC = system: LXFL 529 NSCLC
# M14 melanoma = system: M14 melanoma
# M19-MEL melanoma = system: M19-MEL melanoma
# MALME-3M melanoma = system: MALME-3M melanoma
# MOLT-4 leukemia = system: MOLT-4 leukemia
# NCI-H226 lung = system: NCI-H226 lung
# NCI-H23 lung = system: NCI-H23 lung
# NCI-H460 lung = system: NCI-H460 lung
# NCI-H522 lung = system: NCI-H522 lung
# OVCAR-3 ovarian = system: OVCAR-3 ovarian
# OVCAR-5 ovarian = system: OVCAR-5 ovarian
# OVCAR-8 ovarian = system: OVCAR-8 ovarian
# RPMI-8226 leukemia = system: RPMI-8226 leukemia
# RXF 393 renal = system: RXF 393 renal
# SF-268 CNS = system: SF-268 CNS
# SF-295 CNS = system: SF-295 CNS
# SF-539 CNS = system: SF-539 CNS
# SK-MEL-2 melanoma = system: SK-MEL-2 melanoma
# SK-MEL-28 melanoma = system: SK-MEL-28 melanoma
# SK-MEL-5 melanoma = system: SK-MEL-5 melanoma
# SK-OV-3 ovarian = system: SK-OV-3 ovarian
# SN12C renal = system: SN12C renal
# SNB-19 CNS = system: SNB-19 CNS
# SR leukemia = system: SR leukemia
# SW-620 colon = system: SW-620 colon
# TK-10 renal = system: TK-10 renal
# U251 CNS = system: U251 CNS
# UACC-257 melanoma = system: UACC-257 melanoma
# UO-31 renal = system: UO-31 renal
# A498 renal = system: A498 renal
# CAKI-1 renal = system: CAKI-1 renal
# HCT-116 colon = system: HCT-116 colon
# HOP-62 NSCLC = system: HOP-62 NSCLC
# LOX IMVI melanoma = system: LOX IMVI melanoma
# OVCAR-4 ovarian = system: OVCAR-4 ovarian
# SNB-75 CNS = system: SNB-75 CNS
# BT-549 breast = system: BT-549 breast
# DU-145 prostate = system: DU-145 prostate
# HS 578T breast = system: HS 578T breast
# MCF7 breast = system: MCF7 breast
# MDA-MB-231 breast = system: MDA-MB-231 breast
# MDA-MB-435 = system: MDA-MB-435
# MDA-N = system: MDA-N
# NCI/ADR-RES ovarian = system: NCI/ADR-RES ovarian
# PC-3 prostate = system: PC-3 prostate
# T-47D breast = system: T-47D breast
# UACC-62 melanoma = system: UACC-62 melanoma
compound,measurement,setting,value
C#C[C@]1(O)CCCC2=CC(=O)CC[C@@]21C,TGI,786-0 renal,> 100 µM
same,TGI,A549 NSCLC,> 100 µM
same,TGI,ACHN renal,> 100 µM
same,TGI,CCRF-CEM leukemia,> 100 µM
same,TGI,COLO 205 colon,> 100 µM
same,TGI,DLD-1 colon,> 100 µM
same,TGI,DMS 114 small cell lung,> 100 µM
same,TGI,DMS 273 small cell lung,> 100 µM
same,TGI,EKVX NSCLC,> 100 µM
same,TGI,HCC-2998 colon,> 100 µM
same,TGI,HCT-15 colon,> 100 µM
same,TGI,HL-60(TB) leukemia,> 100 µM
same,TGI,HOP-18 NSCLC,> 100 µM
same,TGI,HOP-92 NSCLC,> 100 µM
same,TGI,HT29 colon,> 100 µM
same,TGI,IGROV1 ovarian,> 100 µM
same,TGI,K-562 leukemia,> 100 µM
same,TGI,KM12 colon,> 100 µM
same,TGI,KM20L2 colon,> 100 µM
same,TGI,LXFL 529 NSCLC,> 100 µM
same,TGI,M14 melanoma,> 100 µM
same,TGI,M19-MEL melanoma,> 100 µM
same,TGI,MALME-3M melanoma,> 100 µM
same,TGI,MOLT-4 leukemia,> 100 µM
same,TGI,NCI-H226 lung,> 100 µM
same,TGI,NCI-H23 lung,> 100 µM
same,TGI,NCI-H460 lung,> 100 µM
same,TGI,NCI-H522 lung,> 100 µM
same,TGI,OVCAR-3 ovarian,> 100 µM
same,TGI,OVCAR-5 ovarian,> 100 µM
same,TGI,OVCAR-8 ovarian,> 100 µM
same,TGI,RPMI-8226 leukemia,> 100 µM
same,TGI,RXF 393 renal,> 100 µM
same,TGI,SF-268 CNS,> 100 µM
same,TGI,SF-295 CNS,> 100 µM
same,TGI,SF-539 CNS,> 100 µM
same,TGI,SK-MEL-2 melanoma,> 100 µM
same,TGI,SK-MEL-28 melanoma,> 100 µM
same,TGI,SK-MEL-5 melanoma,> 100 µM
same,TGI,SK-OV-3 ovarian,> 100 µM
same,TGI,SN12C renal,> 100 µM
same,TGI,SNB-19 CNS,> 100 µM
same,TGI,SR leukemia,> 100 µM
same,TGI,SW-620 colon,> 100 µM
same,TGI,TK-10 renal,> 100 µM
same,TGI,U251 CNS,> 100 µM
same,TGI,UACC-257 melanoma,> 100 µM
same,TGI,UO-31 renal,> 100 µM
O=C1C(=C([O-])c2ccccc2)C(=O)c2ccccc21.O=C1C(=C([O-])c2ccccc2)C(=O)c2ccccc21.[Fe+2],GI50,786-0 renal,> 100 µM
same,TGI,786-0 renal,> 100 µM
same,GI50,A498 renal,> 100 µM
same,TGI,A498 renal,> 100 µM
same,GI50,A549 NSCLC,54.7 µM
same,TGI,A549 NSCLC,> 100 µM
same,GI50,ACHN renal,> 100 µM
same,TGI,ACHN renal,> 100 µM
same,GI50,CAKI-1 renal,> 100 µM
same,TGI,CAKI-1 renal,> 100 µM
same,GI50,CCRF-CEM leukemia,80.3 µM
same,TGI,CCRF-CEM leukemia,> 100 µM
same,GI50,COLO 205 colon,38.2 µM
same,TGI,COLO 205 colon,> 100 µM
same,GI50,DLD-1 colon,> 100 µM
same,TGI,DLD-1 colon,> 100 µM
same,GI50,HCC-2998 colon,69.5 µM
same,TGI,HCC-2998 colon,> 100 µM
same,GI50,HCT-116 colon,> 100 µM
same,TGI,HCT-116 colon,> 100 µM
same,GI50,HL-60(TB) leukemia,80.9 µM
same,TGI,HL-60(TB) leukemia,> 100 µM
same,GI50,HOP-18 NSCLC,> 100 µM
same,TGI,HOP-18 NSCLC,> 100 µM
same,GI50,HOP-62 NSCLC,> 100 µM
same,TGI,HOP-62 NSCLC,> 100 µM
same,GI50,HOP-92 NSCLC,16.1 µM
same,TGI,HOP-92 NSCLC,38.6 µM
same,GI50,HT29 colon,> 100 µM
same,TGI,HT29 colon,> 100 µM
same,GI50,IGROV1 ovarian,> 100 µM
same,TGI,IGROV1 ovarian,> 100 µM
same,GI50,K-562 leukemia,84.9 µM
same,TGI,K-562 leukemia,> 100 µM
same,GI50,KM12 colon,55.1 µM
same,TGI,KM12 colon,> 100 µM
same,GI50,LOX IMVI melanoma,6.33 µM
same,TGI,LOX IMVI melanoma,23.6 µM
same,GI50,M14 melanoma,> 100 µM
same,TGI,M14 melanoma,> 100 µM
same,GI50,M19-MEL melanoma,> 100 µM
same,TGI,M19-MEL melanoma,> 100 µM
same,GI50,MALME-3M melanoma,> 100 µM
same,TGI,MALME-3M melanoma,> 100 µM
same,GI50,MOLT-4 leukemia,> 100 µM
same,TGI,MOLT-4 leukemia,> 100 µM
same,GI50,NCI-H226 lung,> 100 µM
same,TGI,NCI-H226 lung,> 100 µM
same,GI50,NCI-H23 lung,58.8 µM
same,TGI,NCI-H23 lung,> 100 µM
same,GI50,NCI-H522 lung,> 100 µM
same,TGI,NCI-H522 lung,> 100 µM
same,GI50,OVCAR-3 ovarian,89.5 µM
same,TGI,OVCAR-3 ovarian,> 100 µM
same,GI50,OVCAR-4 ovarian,> 100 µM
same,TGI,OVCAR-4 ovarian,> 100 µM
same,GI50,OVCAR-5 ovarian,> 100 µM
same,TGI,OVCAR-5 ovarian,> 100 µM
same,GI50,OVCAR-8 ovarian,72.4 µM
same,TGI,OVCAR-8 ovarian,> 100 µM
same,GI50,RPMI-8226 leukemia,65.7 µM
same,TGI,RPMI-8226 leukemia,> 100 µM
same,GI50,SF-268 CNS,> 100 µM
same,TGI,SF-268 CNS,> 100 µM
same,GI50,SF-295 CNS,44 µM
same,TGI,SF-295 CNS,> 100 µM
same,GI50,SF-539 CNS,> 100 µM
same,TGI,SF-539 CNS,> 100 µM
same,GI50,SK-MEL-28 melanoma,> 100 µM
same,TGI,SK-MEL-28 melanoma,> 100 µM
same,GI50,SK-MEL-5 melanoma,> 100 µM
same,TGI,SK-MEL-5 melanoma,> 100 µM
same,GI50,SK-OV-3 ovarian,> 100 µM
same,TGI,SK-OV-3 ovarian,> 100 µM
same,GI50,SN12C renal,> 100 µM
same,TGI,SN12C renal,> 100 µM
same,GI50,SNB-19 CNS,> 100 µM
same,TGI,SNB-19 CNS,> 100 µM
same,GI50,SNB-75 CNS,61.5 µM
same,TGI,SNB-75 CNS,> 100 µM
same,GI50,SW-620 colon,> 100 µM
same,TGI,SW-620 colon,> 100 µM
same,GI50,TK-10 renal,88.3 µM
same,TGI,TK-10 renal,> 100 µM
same,GI50,U251 CNS,54.9 µM
same,TGI,U251 CNS,> 100 µM
same,GI50,UACC-257 melanoma,> 100 µM
same,TGI,UACC-257 melanoma,> 100 µM
same,GI50,UO-31 renal,44.8 µM
same,TGI,UO-31 renal,> 100 µM
C=CCN1C(=O)/C(=C/c2cccs2)N=C1SC/C=C/C,TGI,786-0 renal,> 100 µM
same,TGI,A498 renal,98.8 µM
same,TGI,A549 NSCLC,> 100 µM
same,TGI,ACHN renal,> 100 µM
same,TGI,BT-549 breast,> 100 µM
same,TGI,CAKI-1 renal,> 100 µM
same,TGI,CCRF-CEM leukemia,> 100 µM
same,TGI,COLO 205 colon,88.9 µM
same,TGI,DU-145 prostate,> 100 µM
same,TGI,EKVX NSCLC,> 100 µM
same,TGI,HCC-2998 colon,> 100 µM
same,TGI,HCT-116 colon,> 100 µM
same,TGI,HCT-15 colon,> 100 µM
same,TGI,HL-60(TB) leukemia,62.2 µM
same,TGI,HOP-62 NSCLC,> 100 µM
same,TGI,HOP-92 NSCLC,> 100 µM
same,TGI,HS 578T breast,> 100 µM
same,TGI,HT29 colon,> 100 µM
same,TGI,IGROV1 ovarian,> 100 µM
same,TGI,K-562 leukemia,> 100 µM
same,TGI,KM12 colon,> 100 µM
same,TGI,LOX IMVI melanoma,> 100 µM
same,TGI,M14 melanoma,> 100 µM
same,TGI,MALME-3M melanoma,96.6 µM
same,TGI,MCF7 breast,> 100 µM
same,TGI,MDA-MB-231 breast,> 100 µM
same,TGI,MDA-MB-435,> 100 µM
same,TGI,MDA-N,> 100 µM
same,TGI,MOLT-4 leukemia,44.6 µM
same,TGI,NCI-H226 lung,> 100 µM
same,TGI,NCI-H23 lung,> 100 µM
same,TGI,NCI-H460 lung,> 100 µM
same,TGI,NCI-H522 lung,97.5 µM
same,TGI,NCI/ADR-RES ovarian,> 100 µM
same,TGI,OVCAR-3 ovarian,> 100 µM
same,TGI,OVCAR-4 ovarian,> 100 µM
same,TGI,OVCAR-5 ovarian,> 100 µM
same,TGI,OVCAR-8 ovarian,> 100 µM
same,TGI,PC-3 prostate,> 100 µM
same,TGI,RPMI-8226 leukemia,40.6 µM
same,TGI,RXF 393 renal,85.2 µM
same,TGI,SF-268 CNS,> 100 µM
same,TGI,SF-295 CNS,> 100 µM
same,TGI,SF-539 CNS,> 100 µM
same,TGI,SK-MEL-2 melanoma,65.8 µM
same,TGI,SK-MEL-28 melanoma,> 100 µM
same,TGI,SK-MEL-5 melanoma,37.7 µM
same,TGI,SK-OV-3 ovarian,> 100 µM
same,TGI,SN12C renal,86.6 µM
same,TGI,SNB-19 CNS,> 100 µM
same,TGI,SNB-75 CNS,> 100 µM
same,TGI,SR leukemia,45.8 µM
same,TGI,SW-620 colon,> 100 µM
same,TGI,T-47D breast,> 100 µM
same,TGI,TK-10 renal,> 100 µM
same,TGI,U251 CNS,> 100 µM
same,TGI,UACC-257 melanoma,> 100 µM
same,TGI,UACC-62 melanoma,> 100 µM
same,TGI,UO-31 renal,> 100 µM

# — PubChem BioAssay (NCI)
